Data as given in patent US10828315B2 (Madrigal Pharmaceuticals, Inc., priority 2013, dated 2020).
Values joined by “and” are separate entries in the source; they are usually repeats but may differ in a detail not shown here. Equal entries are not always repeated.

Tests used:
[1] = Mouse plasma stability protocol, up to 1 h (Examples 16-18)
Method: 150 ng/mL solution of SDC-TRAP-0002 in methanol was prepared using the internal standard spiking solution. This solution was used to precipitate all plasma samples in the study. 200 μL was pipetted into a 96 deepwell plate over dry ice. 10 μL of 1 mM stock in DMSO was added to a 1.5 mL microfuge tube, then 990 μL of plasma. Samples were mixed by vortex, then 50 μL of each sample was added in triplicate to a 96-well plate containing internal standard solution. This was designated the 0 hour time point sample. 250 μL of the remaining plasma sample was added to each of four 96 deepwell plates—one per time point. Samples were incubated at 37° C. with gentle shaking for 0.25, 0.5, and 1 hour. After each time point, one plate of each sample was removed from the shaker and placed on wet ice for approximately 2 minutes. 50 μL at plasma aliquots (in triplicate) were added to the deepwell plate containing internal standard solution. After the last time point was extracted, the 96 deepwell plate was vortexed, then centrifuged at 2-8° C. 150 μL of supernatant was collected and 25 μL at of water was added. Samples were mixed and analyzed by LC-MS/MS.
990 μL mouse plasma aliquots from a common stock were spiked with 10 μL of 1 mM stock of one of seven SDC-TRAP samples identified in the table below. Each sample was mixed and divided into 250 μL aliquots, each representing time points 0, 15 minutes, 30 minutes or 1 hour. At the prescribed time point, 3×50 μL samples were each mixed with 200 μL of methanol containing internal standard and held on dry ice until all time point samples were extracted. The samples collectively were vortex mixed for 1.5 minutes at 1500 rpm, then centrifuged at 4400 rpm for 10 minutes at 8° C.

HER2 = HER2 degradation assay with BT-474 cell line (Example 12, FACS); assay type: cell-based, human
[2] = % Remaining of parent after 1 h incubation in mouse plasma at 37° C. (10 μM)

Row | SMILES | % Remaining (1 h) [1, 2] | IC50 (HER2) | % Remaining (1 h, 37° C.) ([1]; mouse plasma, 37° C.) | % Remaining (1 h) ([1]; mouse plasma, 37° C., 10 μM)
1 | CCNC(=O)c1nnc(-c2cc(C(C)C)c(O)cc2O)n1-c1ccc(Oc2ccc(OC(=O)N(C)CCOC(=O)Nc3cccc4c3CN(C3CCC(=O)NC3=O)C4=O)cc2)cc1 (stereo not shown) | 51.2% | 2860 nM | – | –
2 | CCc1c2c(nc3ccc(O)cc13)-c1cc3c(c(=O)n1C2)COC(=O)C3(CC)OC(=O)CN1CCC(Cc2ccc(-n3c(O)nnc3-c3cc(C(C)C)c(O)cc3O)cc2)CC1 (stereo not shown) [SDC-TRAP-0071, 4,11-diethyl-9-hydroxy-3,14-dioxo-3,4,12,14-tetrahydro-1H-pyrano[3′,4′:6,7]indolizino[1,2-b]quinolin-4-yl 2-(4-(4-(3-(2,4-dihydroxy-5-isopropylphenyl)-5-hydroxy-4H-1,2,4-triazol-4-yl)benzyl)piperidin-1-yl)acetate] | 102% | 307 nM | 102% | –
3 | CCc1c2c(nc3ccc(O)cc13)-c1cc3c(c(=O)n1C2)COC(=O)[C@@]3(CC)OC(=O)N1CCC(CCc2ccc(-n3c(O)nnc3-c3cc(C(C)C)c(O)cc3O)cc2)CC1 [SDC-TRAP-0104, (S)-4,11-diethyl-9-hydroxy-3,14-dioxo-3,4,12,14-tetrahydro-1H-pyrano[3′,4′:6,7]indolizino[1,2-b]quinolin-4-yl 4-(4-(3-(2,4-dihydroxy-5-isopropylphenyl)-5-hydroxy-4H-1,2,4-triazol-4-yl)phenethyl)piperidine-1-carboxylate] | 95.5% | 350 nM | 95.5% | –
4 | CCNC(=O)c1nnc(-c2cc(C(C)C)c(O)cc2O)n1-c1ccc(Oc2ccc(N(C)C(=O)Oc3ccc4nc5c(c(CC)c4c3)Cn3c-5cc4c(c3=O)COC(=O)[C@]4(O)CC)cc2)cc1 [SDC-TRAP-0145, (S)-4,11-diethyl-4-hydroxy-3,14-dioxo-3,4,12,14-tetrahydro-1H-pyrano[3′,4′:6,7]indolizino[1,2-b]quinolin-9-yl (4-(4-(3-(2,4-dihydroxy-5-isopropylphenyl)-5-(ethylcarbamoyl)-4H-1,2,4-triazol-4-yl)phenoxy)phenyl)(methyl)carbamate] | 14.1% | 183 nM | 14.1% | –
5 | CCNC(=O)c1nnc(-c2cc(C(C)C)c(O)cc2O)n1-c1ccc(Oc2ccc(C(=O)N3CCC(C(=O)OC4(CC)C(=O)OCc5c4cc4n(c5=O)Cc5cc6c(CN(C)C)c(O)ccc6nc5-4)CC3)cc2)cc1 (stereo not shown) [SDC-TRAP-0159, 10-((dimethylamino)methyl)-4-ethyl-9-hydroxy-3,14-dioxo-3,4,12,14-tetrahydro-1H-pyrano[3′,4′:6,7]indolizino[1,2-b]quinolin-4-yl-1-(4-(4-(3-(2,4-dihydroxy-5-isopropylphenyl)-5-(ethylcarbamoyl)-4H-1,2,4-triazol-4-yl)phenoxy)benzoyl)piperidine-4-carboxylate] | 121% | > 1000 nM | – | –
6 | CCNC(=O)c1nnc(-c2cc(C(C)C)c(O)cc2O)n1-c1ccc(CN2CCC(C(=O)N3CCC(N(C)C(=O)Oc4ccc5nc6c(c(CC)c5c4)Cn4c-6cc5c(c4=O)COC(=O)C5(O)CC)CC3)CC2)cc1 (stereo not shown) [SDC-TRAP-0172, 4,11-diethyl-4-hydroxy-3,14-dioxo-3,4,12,14-tetrahydro-1H-pyrano[3′,4′:6,7]indolizino[1,2-b]quinolin-9-yl (1-(1-(4-(3-(2,4-dihydroxy-5-isopropylphenyl)-5-(ethylcarbamoyl)-4H-1,2,4-triazol-4-yl)benzyl)piperidine-4-carbonyl)piperidin-4-yl)(methyl) carbamate] | 74.7% | < 78 nM and 56 nM | 74.7% | 74.7%
7 | CCNC(=O)c1nnc(-c2cc(C(C)C)c(O)cc2O)n1-c1ccc(Oc2ccc(C(=O)N3CCC(N(C)C(=O)Oc4ccc5nc6c(c(CC)c5c4)Cn4c-6cc5c(c4=O)COC(=O)C5(O)CC)CC3)cc2)cc1 (stereo not shown) [SDC-TRAP-0180, 4,11-Diethyl-4-hydroxy-3,14-dioxo-3,4,12,14-tetrahydro-1H-pyrano[3′,4′:6,7]indolizino[1,2-b]quinolin-9-yl (1-(4-(4-(3-(2,4-dihydroxy-5-isopropylphenyl)-5-(ethylcarbamoyl)-4H-1,2,4-triazol-4-yl)phenoxy)benzoyl)piperidin-4-yl)(methyl)carbamate] | 72.4% | 325 nM | 72.4% | 72.4%
8 | CCc1c2c(nc3ccc(OC(C)=O)cc13)-c1cc3c(c(=O)n1C2)COC(=O)C3(CC)OC(=O)N(C)CCCCN1CCN(Cc2ccc(-n3c(O)nnc3-c3cc(C(C)C)c(O)cc3O)cc2)CC1 (stereo not shown) [SDC-TRAP-0181, 4-(((4-(4-(4-(3-(2,4-Dihydroxy-5-isopropylphenyl)-5-hydroxy-4H-1,2,4-triazol-4-yl)benzyl)piperazin-1-yl)butyl)(methyl)carbamoyl)oxy)-4,11-diethyl-3,14-dioxo-3,4,12,14-tetrahydro-1H-pyrano[3′,4′:6,7]indolizino[1,2-b]quinolin-9-yl acetate] | – | 164 nM | – | –
9 | Cc1cc(COC(=O)Nc2cccc3c2CN(C2CCC(=O)NC2=O)C3=O)cc(C)c1OC(=O)N1CCN(Cc2ccc(-n3c(O)nnc3-c3cc(C(C)C)c(O)cc3O)cc2F)CC1 (stereo not shown) [SDC-TRAP-0182, 4-((((2-(2,6-dioxopiperidin-3-yl)-1-oxoisoindolin-4-yl)carbamoyl)oxy)methyl)-2,6-dimethylphenyl 4-(4-(3-(2,4-dihydroxy-5-isopropylphenyl)-5-hydroxy-4H-1,2,4-triazol-4-yl)-2-fluorobenzyl)piperazine-1-carboxylate] | 91.9% | 359 nM | – | –
10 | CCc1c2c(nc3ccc(OC(=O)N(C)C4CCN(C(=O)CCn5ccc6cc(-n7c(O)nnc7-c7cc(C(C)C)c(O)cc7O)ccc65)CC4)cc13)-c1cc3c(c(=O)n1C2)COC(=O)C3(O)CC (stereo not shown) [SDC-TRAP-0184, 4,11-diethyl-4-hydroxy-3,14-dioxo-3,4,12,14-tetrahydro-1H-pyrano[3′,4′:6,7]indolizino[1,2-b]quinolin-9-yl (1-(3-(5-(3-(2,4-dihydroxy-5-isopropylphenyl)-5-hydroxy-4H-1,2,4-triazol-4-yl)-1H-indol-1-yl)propanoyl)piperidin-4-yl)(methyl)carbamate] | 18.0% | 4000 nM | 18.0% | 18.0%
11 | CCNC(=O)c1nnc(-c2cc(C(C)C)c(O)cc2O)n1-c1ccc(CN2CCC(C(=O)N3CCN(C(=O)Oc4ccc5nc6c(c(CC)c5c4)Cn4c-6cc5c(c4=O)COC(=O)C5(O)CC)C(C)C3)CC2)cc1 (stereo not shown) [SDC-TRAP-0185, 4,11-diethyl-4-hydroxy-3,14-dioxo-3,4,12,14-tetrahydro-1H-pyrano[3′,4′:6,7]indolizino[1,2-b]quinolin-9-yl 4-(1-(4-(3-(2,4-dihydroxy-5-isopropylphenyl)-5-(ethylcarbamoyl)-4H-1,2,4-triazol-4-yl)benzyl)piperidine-4-carbonyl)-2-methylpiperazine-1-carboxylate] | 68.1% | 38 nM | 68.1% | 68.1%
12 | CCc1c2c(nc3ccc(OC(=O)N4CCC(Cn5ccc6cc(-n7c(O)nnc7-c7cc(C(C)C)c(O)cc7O)ccc65)CC4)cc13)-c1cc3c(c(=O)n1C2)COC(=O)C3(O)CC (stereo not shown) [SDC-TRAP-0186, 4,11-diethyl-4-hydroxy-3,14-dioxo-3,4,12,14-tetrahydro-1H-pyrano[3′,4′:6,7]indolizino[1,2-b]quinolin-9-yl 4-((5-(3-(2,4-dihydroxy-5-isopropylphenyl)-5-hydroxy-4H-1,2,4-triazol-4-yl)-1H-indol-1-yl)methyl)piperidine-1-carboxylate] | 57.9% | 1620 nM | 57.9% | 57.9%
13 | CCNC(=O)c1nnc(-c2cc(C(C)C)c(O)cc2O)n1-c1ccc(OC2CCN(C(=O)Oc3c(C)cc(COC(=O)Nc4cccc5c4CN(C4CCC(=O)NC4=O)C5=O)cc3C)CC2)cc1 (stereo not shown) [SDC-TRAP-0187, 4-((((2-(2,6-dioxopiperidin-3-yl)-1-oxoisoindolin-4-yl)carbamoyl)oxy)methyl)-2,6-dimethylphenyl 4-(4-(3-(2,4-dihydroxy-5-isopropylphenyl)-5-(ethylcarbamoyl)-4H-1,2,4-triazol-4-yl)phenoxy)piperidine-1-carboxylate] | 102% | 72 nM | – | –
14 | CCc1c2c(nc3ccc(OC(=O)N(C)CC(=O)N4CCC(CCn5ccc6cc(-n7c(O)nnc7-c7cc(C(C)C)c(O)cc7O)ccc65)CC4)cc13)-c1cc3c(c(=O)n1C2)COC(=O)[C@]3(O)CC [SDC-TRAP-0207, (S)-4,11-diethyl-4-hydroxy-3,14-dioxo-3,4,12,14-tetrahydro-1H-pyrano[3′,4′:6,7]indolizino[1,2-b]quinolin-9-yl (2-(4-(2-(5-(3-(2,4-dihydroxy-5-isopropylphenyl)-5-hydroxy-4H-1,2,4-triazol-4-yl)-1H-indol-1-yl)ethyl)piperidin-1-yl)-2-oxoethyl)(methyl)carbamate] | – | > 5000 nM | – | –
15 | CCNC(=O)c1nnc(-c2cc(C(C)C)c(O)cc2O)n1-c1ccc(OC2CCN(C(=O)[C@@H]3CCCN3C(=O)O[C@]3(CC)C(=O)OCc4c3cc3n(c4=O)Cc4c-3nc3ccc(O)cc3c4CC)CC2)cc1 [SDC-TRAP-0214, (S)—(S)-4,11-diethyl-9-hydroxy-3,14-dioxo-3,4,12,14-tetrahydro-1H-pyrano[3′,4′:6,7]indolizino[1,2-b]quinolin-4-yl 2-(4-(4-(3-(2,4-dihydroxy-5-isopropylphenyl)-5-(ethylcarbamoyl)-4H-1,2,4-triazol-4-yl)phenoxy)piperidine-1-carbonyl)pyrrolidine-1-carboxylate] | – | > 5000 nM | – | –
